Where a name gives a salt, the structure may show the parent alone.
What follows are compounds tested against T1, human αVβ6 (Homo sapiens, UniProt P06756+P18564) (assay: human αVβ6 HTRF binding assay). Conditions: alternatively SPA-based assay.
T1 construct: purchased R & D systems 3817-AV
Procedure: All binding assays used the HTRF (homogeneous time resolved fluorescence) technology from Cisbio International, therefore all assays are described as HTRF binding assays. The assay results for the Examples are listed above together with the characterization data. The HTRF binding assays are established for the following integrins: human αVβ6, human αVβ1, human αVβ3, human αVβ5, and human αVβ8. All assays used the following assay buffer: 20 mM Tris, pH 7.4, 1 mM MgCl2, 1 mM MnCl2, 0.01% Tween 20, and 0.01% BSA. Alternatively, a SPA-based assay was used for evaluation of receptor binding.
The following describes the components and a representative procedure for the human αVβ6 HTRF binding assay: Recombinant human αVβ6 Integrin (R & D systems, 3817-AV) was biotinylated. Biotinylated human αVβ6 Integrin was added to assay vessel at a final concentration of 1.25 nM. FITC-conjugated fibronectin (Cytoskeleton, FNR02) was then added at the final concentration of 5 nM. The mixture was centrifuged at 600 rpm for three minutes using Thermo Fisher Heraeus Multifuge X3 centrifuge and then incubated at RT for an hour. Streptavidin Terbium (Cisbio international 610STLB) was then added at the final concentration of 0.625 nM. The resulting mixture was centrifuged at 600 rpm for three minutes using Thermo Fisher Heraeus Multifuge X3 centrifuge and then incubated at room temperature overnight in dark before reading HTRF signals.
The SPA-based assay was carried out according to the protocol and procedures similar to the ones described in the following reference with appropriate modifications to agents and ligands which are readily understood by one skilled in the art: Pachter J A, Zhang R, Mayer-Ezell R., “Scintillation proximity assay to measure binding of soluble fibronectin to antibody-captured αVβ1 integrin” Anal Biochem. 1995 Sep. 1; 230(1):101-7.

T1 sequence (P06756 31-992 limits assumed): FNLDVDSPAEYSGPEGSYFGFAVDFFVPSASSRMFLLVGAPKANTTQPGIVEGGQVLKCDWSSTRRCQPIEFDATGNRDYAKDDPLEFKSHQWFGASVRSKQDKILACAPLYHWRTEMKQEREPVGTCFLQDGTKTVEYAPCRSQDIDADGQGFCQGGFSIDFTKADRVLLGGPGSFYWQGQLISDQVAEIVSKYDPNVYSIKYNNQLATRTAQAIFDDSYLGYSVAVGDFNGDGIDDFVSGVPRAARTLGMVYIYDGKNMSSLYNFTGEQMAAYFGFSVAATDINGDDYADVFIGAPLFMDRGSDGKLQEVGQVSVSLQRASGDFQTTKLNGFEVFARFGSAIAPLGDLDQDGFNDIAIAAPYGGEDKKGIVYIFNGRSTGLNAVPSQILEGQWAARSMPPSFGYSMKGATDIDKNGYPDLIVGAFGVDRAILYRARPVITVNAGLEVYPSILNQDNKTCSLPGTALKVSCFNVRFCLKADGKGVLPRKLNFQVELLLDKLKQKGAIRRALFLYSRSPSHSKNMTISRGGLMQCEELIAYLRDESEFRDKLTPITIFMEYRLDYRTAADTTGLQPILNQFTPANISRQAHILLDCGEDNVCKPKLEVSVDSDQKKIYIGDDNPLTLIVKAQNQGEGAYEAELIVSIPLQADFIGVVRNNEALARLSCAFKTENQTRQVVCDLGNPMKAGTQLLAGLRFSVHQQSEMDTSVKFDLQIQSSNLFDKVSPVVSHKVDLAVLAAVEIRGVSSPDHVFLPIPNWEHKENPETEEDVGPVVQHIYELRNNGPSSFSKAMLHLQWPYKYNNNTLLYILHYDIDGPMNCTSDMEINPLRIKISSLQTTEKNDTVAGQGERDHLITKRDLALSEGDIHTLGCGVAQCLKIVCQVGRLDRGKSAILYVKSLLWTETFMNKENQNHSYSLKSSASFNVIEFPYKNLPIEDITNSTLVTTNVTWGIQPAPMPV
T1 sequence (P18564 22-707 limits assumed): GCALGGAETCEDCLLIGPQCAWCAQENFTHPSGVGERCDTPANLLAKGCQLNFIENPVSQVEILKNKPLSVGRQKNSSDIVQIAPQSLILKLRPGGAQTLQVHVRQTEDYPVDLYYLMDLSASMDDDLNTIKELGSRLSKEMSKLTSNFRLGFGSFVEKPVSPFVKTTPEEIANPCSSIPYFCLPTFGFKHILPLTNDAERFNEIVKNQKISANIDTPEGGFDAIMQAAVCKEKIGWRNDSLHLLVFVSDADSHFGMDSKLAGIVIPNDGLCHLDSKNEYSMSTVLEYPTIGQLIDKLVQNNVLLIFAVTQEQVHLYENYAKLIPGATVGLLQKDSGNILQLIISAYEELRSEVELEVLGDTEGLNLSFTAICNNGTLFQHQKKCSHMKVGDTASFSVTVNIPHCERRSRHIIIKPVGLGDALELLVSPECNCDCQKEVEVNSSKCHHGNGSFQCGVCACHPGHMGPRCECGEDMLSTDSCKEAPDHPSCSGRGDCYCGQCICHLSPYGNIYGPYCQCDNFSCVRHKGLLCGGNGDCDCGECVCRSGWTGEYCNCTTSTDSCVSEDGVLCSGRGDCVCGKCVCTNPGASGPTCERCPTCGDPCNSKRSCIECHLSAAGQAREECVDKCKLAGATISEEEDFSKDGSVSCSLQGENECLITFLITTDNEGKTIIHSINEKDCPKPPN

In order of falling IC50:
1. COC(Cc1ccc2c(n1)NCCC2)C1CN(C(=O)C[C@H](NC(=O)OCc2ccccc2)C(=O)O)C1 (stereo partly drawn) [Example 24, (2S)-2-(((Benzyloxy)carbonyl)amino)-4-(3-(1-methoxy-2-(5,6,7,8-tetrahydro-1,8-naphthyridin-2-yl)ethyl)azetidin-1-yl)-4-oxobutanoic acid]  490 nM
2. COc1ccc([C@H](CC(=O)O)N2CC(C)(CCCCc3ccc4c(n3)NCCC4)C2=O)cn1 (single isomer, unassigned) [Example 177]  448 nM
3. Cc1cc(C)c(S(=O)(=O)N[C@@H](CNC(=O)C2CC3(CC(NC(=O)CCc4ccc5c(n4)NCCC5)C3)C2)C(=O)O)c(C)c1 (some centres unmarked) [Example 28]  380 nM
4. COc1ccc([C@@H](CC(=O)O)C2(F)CN(C(=O)CCCc3ccc4c(n3)NCCC4)C2)cn1 (single isomer, unassigned) [Example 18]  170 nM
5. CCOC(=O)[C@H](CNC(=O)C1CC2(C1)CN(CCc1ccc3c(n1)NCCC3)C2)NS(=O)(=O)c1c(C)cc(C)cc1C [Example 47]  160 nM
6. COc1ccc([C@H](CC(=O)O)NC(=O)C2CC3(CC(CCc4ccc5c(n4)NCCC5)C3)C2)cn1 (mixture of isomers) [Example 50]  110 nM
7. COc1ccc([C@H](CC(=O)O)N2CC(CCCc3ccc4c(n3)NCCC4)C2=O)cc1F (single isomer, unassigned) [Example 179]  55 nM
8. Cc1ncc([C@@H](CC(=O)O)N2CC(COCCc3ccc4c(n3)NCCC4)C2)cn1 [example 128, (R)-3-(2-methylpyrimidin-5-yl)-3-(3-((2-(5,6,7,8-tetrahydro-1,8-naphthyridin-2-yl)ethoxy)methyl)azetidin-1-yl)propanoic acid]  38 nM
9. COc1ccc(C(CC(=O)O)C2CC(CCCCc3ccc4c(n3)NCCC4)C2)cn1 (single isomer, unassigned; diastereomer a) [Example 139, 3-(6-Methoxypyridin-3-yl)-3-(3-(4-(5,6,7,8-tetrahydro-1,8-naphthyridin-2-yl)butyl)cyclobutyl)propanoic acid (Diastereomer A)]  26 nM
10. O=C(O)[C@H](CN1CC(CCCc2ccc3c(n2)NCCC3)C1=O)NS(=O)(=O)c1ccc(F)cc1 (single isomer, unassigned) [Example 187]  24 nM
11. CCOC(=O)[C@H](CNC(=O)[C@H]1C[C@@H](Cc2ccc3c(n2)NCCC3)C1)NC(=O)OCc1ccccc1 [Example 195, Ethyl (S)-2-(((benzyloxy)carbonyl)amino)-3-(cis-3-((5,6,7,8-tetrahydro-1,8-naphthyridin-2-yl)methyl)cyclobutane-1-carboxamido)propanoate]  13 nM
12. O=C(N[C@@H](CNC(=O)C1CC2(C1)CN(CCc1ccc3c(n1)NCCC3)C2)C(=O)O)OCc1ccccc1 [Example 41]  9.3 nM
13. COc1ccc(C(CC(=O)O)C2CN(CCCCc3ccc4c(n3)NCCC4)C2)cc1F (centres unmarked) [Example 143]  8.5 nM
14. COc1ccc([C@H](CC(=O)O)NC(=O)C2CC3(C2)CN(CCc2ccc4c(n2)NCCC4)C3)cc1F [Example 39]  8.4 nM
15. Cc1ncc(C(CC(=O)O)N2CC(COCCc3ccc4c(n3)NCCC4)C2)cn1 (centres unmarked) [Example 127, 3-(2-methylpyrimidin-5-yl)-3-(3-((2-(5,6,7,8-tetrahydro-1,8-naphthyridin-2-yl)ethoxy)methyl)azetidin-1-yl)propanoic acid, 2 TFA]  7.9 nM
16. COc1ccc(C(CC(=O)O)CC(=O)N2CC(CCc3ccc4c(n3)NCCC4)C2)cc1F (centres unmarked) [Example 67]  7.1 nM
17. O=C(O)CC(c1ccc2nccnc2c1)C1CC(NCCCc2ccc3c(n2)NCCC3)C1 (centres unmarked) [Example 148]  6.5 nM
18. O=C(O)C[C@@H](c1ccc2c(c1)CCO2)N1CC(CCCCc2ccc3c(n2)NCCC3)C1=O (some centres unmarked) [Example 111]  6 nM
19. Cc1ncc([C@H](CC(=O)O)NC(=O)N2CC(CCc3ccc4c(n3)NCCC4)C2)cn1 [Example 120]  5.9 nM
20. COc1ccc(C(CC(=O)O)C2CC3(C2)CN(CCCc2ccc4c(n2)NCCC4)C3)cn1 (centres unmarked) [Example 99]  5.9 nM
21. COc1ccc(C(CC(=O)O)N2CC3(CC(Cc4ccc5c(n4)NCCC5)C3)C2)cc1F (centres unmarked) [Example 210, 3-(3-fluoro-4-methoxyphenyl)-3-(6-((5,6,7,8-tetrahydro-1,8-naphthyridin-2-yl)methyl)-2-azaspiro[3.3]heptan-2-yl)propanoic acid]  5.6 nM
22. O=C(N[C@@H](CNC(=O)[C@H]1C[C@@H](Cc2ccc3c(n2)NCCC3)C1)C(=O)O)OCc1ccccc1 [Example 196, (S)-2-(((Benzyloxy)carbonyl)amino)-3-(cis-3-((5,6,7,8-tetrahydro-1,8-naphthyridin-2-yl)methyl)cyclobutane-1-carboxamido)propanoic acid]  5.1 nM
23. COc1ccc(C(CC(=O)O)N2CC(OCCCc3ccc4c(n3)NCCC4)C2)cn1 (centres unmarked) [Example 134, 3-(6-methoxypyridin-3-yl)-3-(3-(3-(5,6,7,8-tetrahydro-1,8-naphthyridin-2-yl)propoxy)azetidin-1-yl)propanoic acid, 2 TFA]  4.6 nM
24. COc1ccc(C(CC(=O)O)C2(F)CN(CCCCc3ccc4c(n3)NCCC4)C2)cc1F (centres unmarked) [Example 22, 3-(3-Fluoro-1-(4-(5,6,7,8-tetrahydro-1,8-naphthyridin-2-yl)butyl)azetidin-3-yl)-3-(3-fluoro-4-methoxyphenyl)propanoic acid]  3.8 nM
25. COc1ccc([C@H](CC(=O)O)NC2CN(CCc3ccc4c(n3)NCCC4)C2)cn1 [Example 12, (S)-3-(6-Methoxypyridin-3-yl)-3-((1-(2-(5,6,7,8-tetrahydro-1,8-naphthyridin-2-yl)ethyl)azetidin-3-yl)amino)propanoic acid]  3.6 nM
26. Cc1ncc(C(CC(=O)O)N2CC3(CC(CCc4ccc5c(n4)NCCC5)C3)C2)cn1 (centres unmarked) [Example 206]  3.3 nM
27. COc1ccc([C@H](CC(=O)O)NC(=O)[C@H]2C[C@@H](Cc3ccc4c(n3)NCCC4)C2)cc1F [Example 201, (S)-3-(3-fluoro-4-methoxyphenyl)-3-((1s,3R)-3-((5,6,7,8-tetrahydro-1,8-naphthyridin-2-yl)methyl)cyclobutane-1-carboxamido)propanoic acid]  3.2 nM
28. COc1ccc(CN(CCC(=O)O)C2CN(CCCc3ccc4c(n3)NCCC4)C2)cn1 [Example 23, 3-(((6-Methoxypyridin-3-yl)methyl)(1-(3-(5,6,7,8-tetrahydro-1,8-naphthyridin-2-yl)propyl)azetidin-3-yl)amino)propanoic acid]  2.8 nM
29. Cc1cc(C)c(S(=O)(=O)N[C@@H](CNC(=O)C2CC3(C2)CN(CCc2ccc4c(n2)NCCC4)C3)C(=O)O)c(C)c1 [Example 35]  2.7 nM
30. COc1ccc(C(CC(=O)O)C2CC3(C2)CN(CCc2ccc4c(n2)NCCC4)C3)cc1F (centres unmarked) [Example 116]  2.4 nM
31. O=C(O)C[C@@H](c1cnc2ccccc2c1)N1CC(F)(CCCCc2ccc3c(n2)NCCC3)C1 [Example 166]  2.2 nM
32. O=C(N[C@@H](CNC(=O)[C@H]1C[C@@H](Cc2ccc3c(n2)NCCC3)C1)C(=O)O)OCC1CCC1 [Example 199]  2.2 nM
33. O=C(O)C[C@@H](c1ccc2c(c1)OCC2)N1CC(CCCCc2ccc3c(n2)NCCC3)C1 [Example 155]  1.5 nM
34. CC1(CCCCc2ccc3c(n2)NCCC3)CN([C@@H](CC(=O)O)c2cnc3ccccc3c2)C1 [Example 159]  1.5 nM
35. CC1(CCCCc2ccc3c(n2)NCCC3)CN([C@@H](CC(=O)O)c2cc(F)cc(F)c2)C1 [Example 160]  1.3 nM
36. COc1ccc([C@H](CC(=O)O)N2CC(C)(CCCCc3ccc4c(n3)NCCC4)C2)cc1F [Example 158, (S)-3-(3-fluoro-4-methoxyphenyl)-3-(3-methyl-3-(4-(5,6,7,8-tetrahydro-1,8-naphthyridin-2-yl)butyl)azetidin-1-yl)propanoic acid]  1.1 nM
37. COc1ccc([C@H](CC(=O)O)NC(=O)[C@H]2C[C@@H](CCc3ccc4c(n3)NCCC4)C2)cn1 [Example 60]  1 nM
38. COc1ccc([C@H](CC(=O)O)NC(=O)C2CC(CCC3CCc4cccnc4N3)C2)cn1 (some centres unmarked) [Example 57]  0.94 nM
39. CC1(CCCCc2ccc3c(n2)NCCC3)CN([C@@H](CC(=O)O)c2ccc(F)c(F)c2)C1 [Example 161]  0.85 nM
40. Cc1cc(C)c(S(=O)(=O)N[C@@H](CNC(=O)C2CN(CCCc3ccc4c(n3)NCCC4)C2)C(=O)O)c(C)c1 [Example 14, (S)-3-(1-(3-(5,6,7,8-Tetrahydro-1,8-naphthyridin-2-yl)propyl)azetidine-3-carboxamido)-2-(2,4,6-trimethylphenylsulfonamido)propanoic acid]  0.7 nM
41. Cc1cc(C)c(S(=O)(=O)N[C@@H](CN2CC(CCCc3ccc4c(n3)NCCC4)C2=O)C(=O)O)c(C)c1 (single isomer, unassigned) [Example 186]  0.61 nM
42. COc1ccc([C@H](CC(=O)O)NC(=O)[C@H]2C[C@@H](CCc3ccc4c(n3)NCCC4)C2)cc1F [Example 54]  0.5 nM
43. COc1ccc([C@H](CC(=O)O)NC(=O)C2CN(CCc3ccc4c(n3)NCCC4)C2)cc1F [Example 42]  0.4 nM
44. O=C(N[C@@H](CNC(=O)C1CN(CCc2ccc3c(n2)NCCC3)C1)C(=O)O)OCc1ccccc1 [Example 43]  0.4 nM

— patent publication US11639353B2, “Cyclobutanes- and azetidine-containing mono and spirocyclic compounds as αV integrin inhibitors” (BRISTOL-MYERS SQUIBB COMPANY, priority 2016, dated 2023)
